{
  "source": "ChEMBL document CHEMBL4376834",
  "about": "“Discovery of 4H-Chromen-4-one Derivatives as a New Class of Selective Rho Kinase (ROCK) Inhibitors, which Showed Potent Activity in ex Vivo Diabetic Retinopathy Models” (J Med Chem, 2019)",
  "key": {"[1]": {"assay": "Apparent permeability in dog MDCK cells incubated for 90 mins by LC-MS analysis", "assay_type": "ADME, cell-based, Canis lupus familiaris"}, "Ephrin type-A receptor 1": {"target": "Ephrin type-A receptor 1 (Homo sapiens, UniProt P21709)", "assay": "Inhibition of recombinant human EphA1 (568 to end residues) using KKKSPGEYVNIEF as substrate after 40 mins in presence of [gamma-33ATP] by radiometric scintillation counting analysis"}, "[2]": {"target": "Serine/threonine-protein kinase TAO3 (Homo sapiens, UniProt Q9H2K8)", "assay": "Inhibition of recombinant human TAO3 N47S mutant (1 to 411 residues) using myelin basic protein as substrate incubated for 40 mins in presence of [gamma33P]ATP by radiometric scintillation counting analysis"}, "[3]": {"target": "Receptor-interacting serine/threonine-protein kinase 2 (Homo sapiens, UniProt O43353)", "sequence (O43353 whole entry, the tested form may be a part)": "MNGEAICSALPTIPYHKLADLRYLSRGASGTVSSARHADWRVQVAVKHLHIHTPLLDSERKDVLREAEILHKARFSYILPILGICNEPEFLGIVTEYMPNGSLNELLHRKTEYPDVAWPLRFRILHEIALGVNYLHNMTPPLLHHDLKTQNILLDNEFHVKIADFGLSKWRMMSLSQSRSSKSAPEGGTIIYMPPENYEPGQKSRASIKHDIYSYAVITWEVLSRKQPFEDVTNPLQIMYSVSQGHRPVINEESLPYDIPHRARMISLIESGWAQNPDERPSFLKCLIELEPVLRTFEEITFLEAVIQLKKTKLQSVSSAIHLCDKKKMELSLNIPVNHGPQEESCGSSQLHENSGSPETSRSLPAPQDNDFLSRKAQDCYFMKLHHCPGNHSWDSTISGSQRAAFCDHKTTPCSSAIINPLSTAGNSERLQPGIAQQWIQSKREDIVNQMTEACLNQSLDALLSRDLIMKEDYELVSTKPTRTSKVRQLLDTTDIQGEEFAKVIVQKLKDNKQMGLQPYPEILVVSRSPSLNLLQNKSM", "assay": "Inhibition of recombinant human RIPK2 (1 to 299 residues) using MBP as substrate incubated for 120 mins in presence of [gamma33P]ATP by radiometric scintillation counting analysis"}, "CDK6/cyclin D3": {"target": "CDK6/cyclin D3 (Homo sapiens, UniProt Q00534)", "assay": "Inhibition of recombinant full length human CDK6/cyclinD3 using histone H1 as substrate incubated for 40 mins in presence of [gamma-33ATP] by radiometric scintillation counting analysis", "assay_type": "protein-complex assay"}, "[4]": {"target": "Serine/threonine-protein kinase Nek2 (Homo sapiens, UniProt P51955)", "sequence (P51955 whole entry)": "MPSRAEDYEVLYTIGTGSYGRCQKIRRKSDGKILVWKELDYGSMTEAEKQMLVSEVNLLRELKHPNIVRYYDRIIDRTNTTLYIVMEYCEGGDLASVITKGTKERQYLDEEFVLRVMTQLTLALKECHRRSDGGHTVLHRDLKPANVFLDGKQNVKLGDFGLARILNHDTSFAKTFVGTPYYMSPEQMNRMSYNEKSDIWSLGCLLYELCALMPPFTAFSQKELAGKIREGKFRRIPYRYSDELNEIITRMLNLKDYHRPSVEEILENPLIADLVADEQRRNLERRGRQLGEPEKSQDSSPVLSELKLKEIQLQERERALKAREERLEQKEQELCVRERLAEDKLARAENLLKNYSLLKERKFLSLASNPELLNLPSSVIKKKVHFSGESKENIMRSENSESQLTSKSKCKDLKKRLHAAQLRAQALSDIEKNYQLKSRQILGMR", "assay": "Inhibition of recombinant full-length human NEK2 using myelin basic protein as substrate measured after 40 mins in presence of [gamma33P]ATP by radiometric scintillation counting analysis"}, "[5]": {"target": "Calcium/calmodulin-dependent protein kinase type II subunit alpha (Homo sapiens, UniProt Q9UQM7)", "sequence (Q9UQM7 whole entry)": "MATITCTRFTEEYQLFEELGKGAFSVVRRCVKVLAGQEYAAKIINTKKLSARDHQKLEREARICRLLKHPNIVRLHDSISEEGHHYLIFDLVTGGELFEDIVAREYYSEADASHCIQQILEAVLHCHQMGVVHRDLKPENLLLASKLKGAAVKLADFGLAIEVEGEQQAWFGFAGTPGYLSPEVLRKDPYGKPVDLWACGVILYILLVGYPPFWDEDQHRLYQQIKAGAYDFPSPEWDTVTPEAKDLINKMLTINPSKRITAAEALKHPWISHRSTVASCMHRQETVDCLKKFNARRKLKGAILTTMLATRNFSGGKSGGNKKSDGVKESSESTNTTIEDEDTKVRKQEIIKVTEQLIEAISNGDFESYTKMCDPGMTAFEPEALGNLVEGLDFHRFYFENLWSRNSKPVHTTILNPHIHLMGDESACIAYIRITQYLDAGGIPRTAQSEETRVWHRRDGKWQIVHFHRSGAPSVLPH", "assay": "Inhibition of recombinant full length human CaMK2alpha using KKLNRTLSFAEPG as substrate incubated for 40 mins in presence of [gamma-33ATP] by radiometric scintillation counting analysis"}, "[6]": {"target": "Fibroblast growth factor receptor 1 (Homo sapiens, UniProt P11362, V561M)", "assay": "Inhibition of recombinant human FGFR1 V561M mutant (456 to 765 residues) using GGEEEEYFELVKK as substrate after 40 mins in presence of [gamma-33ATP] by radiometric scintillation counting analysis"}, "[7]": {"target": "Epidermal growth factor receptor (Homo sapiens, UniProt P00533, L861Q)", "assay": "Inhibition of recombinant human EGFR L861Q mutant (696 to end residues) using poly(Glu, Tyr) 4:1 as substrate after 40 mins in presence of [gamma-33ATP] by radiometric scintillation counting analysis"}, "[8]": {"assay": "Inhibition of recombinant human EphB2 A848S/K918E double mutant (560 to end residues) using poly(Glu, Tyr) 4:1 as substrate after 40 mins in presence of [gamma-33ATP] by radiometric scintillation counting analysis"}, "[9]": {"target": "Tyrosine-protein kinase ABL1 (Homo sapiens, UniProt P00519, M351T)", "assay": "Inhibition of human recombinant ABL1 M351T mutant (27 to end residues) using EAIYAAPFAKKK as substrate incubated for 40 mins in presence of [gamma-33P]ATP by scintillation counting based radiometry assay"}, "CDK7/Cyclin H/MNAT1": {"target": "CDK7/Cyclin H/MNAT1 (Homo sapiens, UniProt P50613)", "assay": "Inhibition of recombinant full length human CDK7/cyclinH/MAT1 using peptide substrate incubated for 40 mins in presence of [gamma-33ATP] by radiometric scintillation counting analysis", "assay_type": "protein-complex assay"}, "[10]": {"target": "Insulin-like growth factor 1 receptor (Homo sapiens, UniProt P08069)", "assay": "Inhibition of human recombinant activated IGF1R (959 to end residues) using KKKSPGEYVNIEF as substrate after 40 mins by [gamma-33ATP] by radiometric scintillation counting analysis"}, "[11]": {"target": "PI3-kinase p110-alpha/p85-alpha (Homo sapiens, UniProt P42336, E545K)", "assay": "Inhibition of recombinant human full length PI3K p110alpha/p85alpha E545K mutant using phosphatidylinositol 4,5-bisphosphate as substrate incubated for 40 mins in presence of [gamma33P]ATP by radiometric scintillation counting analysis", "assay_type": "protein-complex assay"}, "[12]": {"target": "Casein kinase II subunit alpha (Homo sapiens, UniProt P68400)", "sequence (P68400 whole entry)": "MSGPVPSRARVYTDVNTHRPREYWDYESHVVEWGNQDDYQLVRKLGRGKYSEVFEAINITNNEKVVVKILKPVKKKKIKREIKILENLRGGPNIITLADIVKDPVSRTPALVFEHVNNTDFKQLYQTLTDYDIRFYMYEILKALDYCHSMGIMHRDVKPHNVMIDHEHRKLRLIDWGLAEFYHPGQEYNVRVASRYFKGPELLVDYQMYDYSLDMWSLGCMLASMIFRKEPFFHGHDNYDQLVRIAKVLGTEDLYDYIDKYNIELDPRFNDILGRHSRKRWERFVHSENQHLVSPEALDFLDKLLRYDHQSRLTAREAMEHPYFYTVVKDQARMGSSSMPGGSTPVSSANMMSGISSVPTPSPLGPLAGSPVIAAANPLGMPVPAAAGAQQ", "assay": "Inhibition of recombinant full length human CK2alpha1 using RRRDDDSDDD as substrate incubated 40 mins in presence of [gamma-33ATP] by radiometric scintillation counting analysis"}, "[13]": {"target": "Mast/stem cell growth factor receptor Kit (Homo sapiens, UniProt P10721)", "assay": "Inhibition of recombinant human C-Kit (544 to end residues) using poly (Glu,Tyr) 4:1 as substrate in presence of [gamma-33ATP] by radiometric scintillation counting analysis"}, "[14]": {"target": "Homeodomain-interacting protein kinase 4 (Homo sapiens, UniProt Q8NE63)", "sequence (Q8NE63 whole entry)": "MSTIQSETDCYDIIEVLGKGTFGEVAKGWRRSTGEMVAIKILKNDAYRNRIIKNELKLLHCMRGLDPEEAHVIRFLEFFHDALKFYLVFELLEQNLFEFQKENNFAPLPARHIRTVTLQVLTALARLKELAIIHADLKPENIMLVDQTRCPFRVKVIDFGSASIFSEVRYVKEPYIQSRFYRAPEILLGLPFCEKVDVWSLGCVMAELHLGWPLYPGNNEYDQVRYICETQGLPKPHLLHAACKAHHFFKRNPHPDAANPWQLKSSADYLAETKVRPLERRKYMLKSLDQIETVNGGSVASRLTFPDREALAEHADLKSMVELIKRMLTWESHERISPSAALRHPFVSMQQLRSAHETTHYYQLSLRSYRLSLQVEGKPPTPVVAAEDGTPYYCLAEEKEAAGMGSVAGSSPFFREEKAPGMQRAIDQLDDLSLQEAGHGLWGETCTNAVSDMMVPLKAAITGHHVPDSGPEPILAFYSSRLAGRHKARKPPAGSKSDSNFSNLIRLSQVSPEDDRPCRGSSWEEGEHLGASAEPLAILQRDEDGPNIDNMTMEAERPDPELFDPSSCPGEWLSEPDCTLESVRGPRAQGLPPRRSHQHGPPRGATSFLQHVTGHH", "assay": "Inhibition of human recombinant full length HIPK4 using RRRFRPASPLRGP as substrate after 40 mins by [gamma-33ATP] radiometric assay"}, "CDK4/Cyclin D3": {"target": "CDK4/Cyclin D3 (Homo sapiens, UniProt P11802)", "assay": "Inhibition of recombinant full length human CDK4/CyclinD3 using Rb fragment as substrate incubated for 40 mins in presence of [gamma-33ATP] by radiometric scintillation counting analysis", "assay_type": "protein-complex assay"}, "[15]": {"target": "Receptor tyrosine-protein kinase erbB-4 (Homo sapiens, UniProt Q15303)", "assay": "Inhibition of recombinant human ERBB4 (706 to 991 residues) using poly(Glu, Tyr) 4:1 as substrate after 40 mins in presence of [gamma-33ATP] by radiometric scintillation counting analysis"}, "[16]": {"target": "Serine/threonine-protein kinase Chk2 (Homo sapiens, UniProt O96017, R145W)", "assay": "Inhibition of recombinant human CHK2 R145W mutant (5 to end residues) using KKKVSRSGLYRSP as substrate incubated for 40 mins in presence of [gamma-33ATP] by radiometric scintillation counting analysis"}, "[17]": {"target": "Hepatocyte growth factor receptor (Homo sapiens, UniProt P08581, Y1230D)", "assay": "Inhibition of recombinant human MET A1209G/V1290L/Y1248D triple mutant (974 to end residues) using KKKGQEEEYVFIE as substrate incubated for 40 mins in presence of [gamma-33ATP by radiometric scintillation counting analysis"}, "Rhodopsin kinase GRK7": {"target": "Rhodopsin kinase GRK7 (Homo sapiens, UniProt Q8WTQ7)", "assay": "Inhibition of recombinant full length human GRK7 using casein as substrate after 40 mins in presence of [gamma-33ATP] by radiometric scintillation counting analysis"}, "[18]": {"target": "Serine/threonine-protein kinase D3 (Homo sapiens, UniProt O94806)", "sequence (O94806 whole entry)": "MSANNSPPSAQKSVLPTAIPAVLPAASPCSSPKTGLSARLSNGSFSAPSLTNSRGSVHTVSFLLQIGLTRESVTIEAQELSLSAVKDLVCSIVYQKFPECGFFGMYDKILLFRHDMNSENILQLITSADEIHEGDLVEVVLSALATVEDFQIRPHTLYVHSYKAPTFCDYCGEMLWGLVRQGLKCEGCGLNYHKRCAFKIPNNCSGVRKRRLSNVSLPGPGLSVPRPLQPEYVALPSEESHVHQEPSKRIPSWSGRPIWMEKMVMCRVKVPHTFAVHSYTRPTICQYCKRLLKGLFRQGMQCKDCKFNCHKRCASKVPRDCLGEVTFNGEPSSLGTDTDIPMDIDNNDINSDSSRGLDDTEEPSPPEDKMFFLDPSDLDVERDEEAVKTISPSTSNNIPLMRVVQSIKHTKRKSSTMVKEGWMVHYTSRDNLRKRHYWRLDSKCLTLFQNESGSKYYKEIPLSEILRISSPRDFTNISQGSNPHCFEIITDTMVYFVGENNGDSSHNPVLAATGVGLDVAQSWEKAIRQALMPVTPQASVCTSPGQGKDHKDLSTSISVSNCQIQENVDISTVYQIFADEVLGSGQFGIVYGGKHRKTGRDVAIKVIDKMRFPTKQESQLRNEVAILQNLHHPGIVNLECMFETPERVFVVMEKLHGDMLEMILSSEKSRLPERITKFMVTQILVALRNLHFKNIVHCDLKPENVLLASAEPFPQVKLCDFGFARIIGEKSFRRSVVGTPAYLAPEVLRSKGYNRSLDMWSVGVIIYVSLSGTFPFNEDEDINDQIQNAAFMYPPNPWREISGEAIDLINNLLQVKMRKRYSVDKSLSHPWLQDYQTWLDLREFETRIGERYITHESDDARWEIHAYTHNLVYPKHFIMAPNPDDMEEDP", "assay": "Inhibition of recombinant full-length human PKD3 using KKLRRTLSVA as substrate incubated for 40 mins in presence of [gamma33P]ATP by radiometric scintillation counting analysis"}, "[19]": {"assay": "Inhibition of recombinant human MARK1 V16E/T20S double mutant (2 to end residues) using KKKVSRSGLYRSP as substrate incubated for 40 mins in presence of [gamma-33ATP by radiometric scintillation counting analysis"}, "Tau-tubulin kinase 1": {"target": "Tau-tubulin kinase 1 (Homo sapiens, UniProt Q5TCY1)", "sequence (Q5TCY1 whole entry, the tested form may be a part)": "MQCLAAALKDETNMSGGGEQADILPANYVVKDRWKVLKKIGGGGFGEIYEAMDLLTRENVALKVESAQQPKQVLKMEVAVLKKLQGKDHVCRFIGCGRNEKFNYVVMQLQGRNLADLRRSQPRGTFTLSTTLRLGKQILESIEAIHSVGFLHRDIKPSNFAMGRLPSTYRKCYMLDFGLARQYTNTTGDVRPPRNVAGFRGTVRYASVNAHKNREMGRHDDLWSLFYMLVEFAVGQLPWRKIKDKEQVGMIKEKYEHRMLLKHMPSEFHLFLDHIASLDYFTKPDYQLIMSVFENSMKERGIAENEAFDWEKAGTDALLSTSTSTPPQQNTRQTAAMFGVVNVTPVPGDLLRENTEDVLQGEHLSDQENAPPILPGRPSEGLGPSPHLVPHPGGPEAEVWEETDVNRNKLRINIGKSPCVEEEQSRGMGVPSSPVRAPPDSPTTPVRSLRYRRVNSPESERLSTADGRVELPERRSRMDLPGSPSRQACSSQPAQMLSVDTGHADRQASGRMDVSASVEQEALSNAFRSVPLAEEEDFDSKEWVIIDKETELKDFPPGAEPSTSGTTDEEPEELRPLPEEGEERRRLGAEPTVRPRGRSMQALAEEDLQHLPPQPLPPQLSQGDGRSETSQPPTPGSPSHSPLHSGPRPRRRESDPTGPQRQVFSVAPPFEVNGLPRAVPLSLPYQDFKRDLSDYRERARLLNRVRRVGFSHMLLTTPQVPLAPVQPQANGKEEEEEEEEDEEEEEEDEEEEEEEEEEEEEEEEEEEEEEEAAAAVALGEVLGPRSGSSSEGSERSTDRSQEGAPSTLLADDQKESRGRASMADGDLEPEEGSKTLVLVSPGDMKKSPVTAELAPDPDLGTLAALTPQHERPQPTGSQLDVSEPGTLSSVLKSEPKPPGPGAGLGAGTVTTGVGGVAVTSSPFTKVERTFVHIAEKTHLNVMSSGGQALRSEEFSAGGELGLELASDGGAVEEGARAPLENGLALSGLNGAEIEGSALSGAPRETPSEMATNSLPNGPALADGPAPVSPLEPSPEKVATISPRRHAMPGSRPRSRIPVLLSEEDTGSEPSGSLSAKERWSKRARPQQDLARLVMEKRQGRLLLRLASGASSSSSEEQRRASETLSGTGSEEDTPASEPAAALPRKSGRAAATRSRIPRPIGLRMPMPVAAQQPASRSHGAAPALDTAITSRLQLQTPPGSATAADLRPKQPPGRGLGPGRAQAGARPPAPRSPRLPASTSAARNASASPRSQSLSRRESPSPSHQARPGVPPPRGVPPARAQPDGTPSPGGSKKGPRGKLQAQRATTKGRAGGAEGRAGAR", "assay": "Inhibition of recombinant human TTBK1 (1 to 479 residues) using casein as substrate incubated for 40 mins in presence of [gamma33P]ATP by radiometric scintillation counting analysis"}, "[20]": {"target": "Mitogen-activated protein kinase 12 (Homo sapiens, UniProt P53778)", "sequence (P53778 whole entry)": "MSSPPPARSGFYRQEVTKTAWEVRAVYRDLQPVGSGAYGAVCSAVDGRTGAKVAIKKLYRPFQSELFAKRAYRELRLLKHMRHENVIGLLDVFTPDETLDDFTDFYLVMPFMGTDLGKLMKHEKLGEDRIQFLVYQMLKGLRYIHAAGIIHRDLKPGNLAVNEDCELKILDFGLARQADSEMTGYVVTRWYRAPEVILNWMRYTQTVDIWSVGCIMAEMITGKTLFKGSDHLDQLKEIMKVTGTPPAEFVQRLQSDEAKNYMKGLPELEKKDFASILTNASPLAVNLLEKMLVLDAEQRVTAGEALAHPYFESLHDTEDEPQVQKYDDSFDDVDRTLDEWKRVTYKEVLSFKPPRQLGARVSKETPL", "assay": "Inhibition of recombinant human full length SAPK3 using myelin basic protein as substrate incubated for 40 mins in presence of [gamma33P]ATP by radiometric scintillation counting analysis"}},
  "data": [
    {"smiles": "CN(C)c1ccc(C(=O)Nc2cccc(NC(=O)COc3ccc4c(=O)ccoc4c3)c2)cc1", "values": [
      {"measurement": "Papp at 1.5 h", "setting": "[1]", "result": 9.41, "unit": "×10⁻⁶ cm/s"},
      {"measurement": "IC50", "setting": "Ephrin type-A receptor 1", "result": "> 10", "unit": "µM"},
      {"measurement": "IC50", "setting": "[2]", "result": "> 10", "unit": "µM"},
      {"measurement": "IC50", "setting": "[3]", "result": "> 10", "unit": "µM"},
      {"measurement": "IC50", "setting": "CDK6/cyclin D3", "result": "> 10", "unit": "µM"},
      {"measurement": "IC50", "setting": "[4]", "result": "> 10", "unit": "µM"},
      {"measurement": "IC50", "setting": "[5]", "result": "> 10", "unit": "µM"},
      {"measurement": "IC50", "setting": "[6]", "result": "> 10", "unit": "µM"},
      {"measurement": "IC50", "setting": "[7]", "result": "> 10", "unit": "µM"},
      {"measurement": "IC50", "setting": "[8]", "result": "> 10", "unit": "µM"},
      {"measurement": "IC50", "setting": "[9]", "result": "> 10", "unit": "µM"},
      {"measurement": "IC50", "setting": "CDK7/Cyclin H/MNAT1", "result": "> 10", "unit": "µM"},
      {"measurement": "IC50", "setting": "[10]", "result": "> 10", "unit": "µM"},
      {"measurement": "IC50", "setting": "[11]", "result": "> 10", "unit": "µM"},
      {"measurement": "IC50", "setting": "[12]", "result": "> 10", "unit": "µM"},
      {"measurement": "IC50", "setting": "[13]", "result": "> 10", "unit": "µM"},
      {"measurement": "IC50", "setting": "[14]", "result": "> 10", "unit": "µM"},
      {"measurement": "IC50", "setting": "CDK4/Cyclin D3", "result": "> 10", "unit": "µM"},
      {"measurement": "IC50", "setting": "[15]", "result": "> 10", "unit": "µM"},
      {"measurement": "IC50", "setting": "[16]", "result": "> 10", "unit": "µM"},
      {"measurement": "IC50", "setting": "[17]", "result": "> 10", "unit": "µM"},
      {"measurement": "IC50", "setting": "Rhodopsin kinase GRK7", "result": "> 10", "unit": "µM"},
      {"measurement": "IC50", "setting": "[18]", "result": "> 10", "unit": "µM"},
      {"measurement": "IC50", "setting": "[19]", "result": "> 10", "unit": "µM"},
      {"measurement": "IC50", "setting": "Tau-tubulin kinase 1", "result": "> 10", "unit": "µM"},
      {"measurement": "IC50", "setting": "[20]", "result": "> 10", "unit": "µM"}
    ]}
  ]
}
